From PubChem BioAssay AID1259407 (Chemical Carcinogenesis Research Information System (CCRIS), 2018)
Calls of active or inactive are those of the source. How the calls were made is not given here.

Tested on: CCRIS mutagenicity, Ames/micronucleus/aberration tests
Assay: CCRIS mutagenicity studies
[1] = Test System: AMES SALMONELLA TYPHIMURIUM, Strain/Indicator: TA98, Metabolic Activation: NONE, Method: STANDARD PLATE
[2] = Test System: AMES SALMONELLA TYPHIMURIUM, Strain/Indicator: TA100, Metabolic Activation: NONE, Method: STANDARD PLATE
[3] = Test System: AMES SALMONELLA TYPHIMURIUM, Strain/Indicator: TA1535, Metabolic Activation: NONE, Method: STANDARD PLATE
[4] = Test System: AMES SALMONELLA TYPHIMURIUM, Strain/Indicator: TA1537, Metabolic Activation: NONE, Method: STANDARD PLATE
[5] = Test System: AMES SALMONELLA TYPHIMURIUM, Strain/Indicator: TA1538, Metabolic Activation: NONE, Method: STANDARD PLATE
[6] = Test System: AMES SALMONELLA TYPHIMURIUM, Strain/Indicator: TA98, Metabolic Activation: RAT, LIVER, S-9, AROCLOR 1254, Method: STANDARD PLATE
[7] = Test System: AMES SALMONELLA TYPHIMURIUM, Strain/Indicator: TA100, Metabolic Activation: RAT, LIVER, S-9, AROCLOR 1254, Method: STANDARD PLATE

In the case of CCCCC(CC)COC(=O)COc1ccc(Cl)cc1Cl (configuration not stated), the mutagenic call [1] is reported as “inactive; negative”, the mutagenic call (Test System: AMES SALMONELLA TYPHIMURIUM, Strain/Indicator: TA98, Metabolic Activation: RAT LIVER S-9, AROCLOR 1254, 10%, Method: STANDARD PLATE) is reported as “inactive; negative” and the mutagenic call [2] is reported as “inactive; negative”. The mutagenic call (Test System: AMES SALMONELLA TYPHIMURIUM, Strain/Indicator: TA100, Metabolic Activation: RAT LIVER S-9, AROCLOR 1254, 10%, Method: STANDARD PLATE) was “inactive; negative”, the mutagenic call [3] was “inactive; negative” and the mutagenic call (Test System: AMES SALMONELLA TYPHIMURIUM, Strain/Indicator: TA1535, Metabolic Activation: RAT LIVER S-9, AROCLOR 1254, 10%, Method: STANDARD PLATE) was “inactive; negative”. The mutagenic call [4] was “inactive; negative”, the mutagenic call (Test System: AMES SALMONELLA TYPHIMURIUM, Strain/Indicator: TA1537, Metabolic Activation: RAT LIVER S-9, AROCLOR 1254, 10%, Method: STANDARD PLATE) was “inactive; negative” and the mutagenic call [5] was “inactive; negative”. The mutagenic call (Test System: AMES SALMONELLA TYPHIMURIUM, Strain/Indicator: TA1538, Metabolic Activation: RAT LIVER S-9, AROCLOR 1254, 10%, Method: STANDARD PLATE) was “inactive; negative” and the mutagenic call (Test System: UDS RAT HEPATOCYTES, Strain/Indicator: THYMIDINE INCORPORATION, Metabolic Activation: NONE, Method: AUTORADIOGRAPHY) was “inactive; negative”.

Clc1nnc(Cl)c2ccccc12 was tested, and the mutagenic call (Test System: AMES SALMONELLA TYPHIMURIUM, Strain/Indicator: TA98, Metabolic Activation: HAMSTER, LIVER, S-9, AROCLOR 1254, Method: STANDARD PLATE) was “inactive; negative”, the mutagenic call [1] was “inactive; negative” and the mutagenic call [6] was “inactive; negative”. For the same molecule, the mutagenic call (Test System: AMES SALMONELLA TYPHIMURIUM, Strain/Indicator: TA100, Metabolic Activation: HAMSTER, LIVER, S-9, AROCLOR 1254, Method: STANDARD PLATE) was “inactive; negative”, the mutagenic call [2] was “inactive; negative” and the mutagenic call [7] was “inactive; negative”. The mutagenic call (Test System: AMES SALMONELLA TYPHIMURIUM, Strain/Indicator: TA1535, Metabolic Activation: HAMSTER, LIVER, S-9, AROCLOR 1254, Method: STANDARD PLATE) was “inactive; negative”, the mutagenic call [3] was “inactive; negative” and the mutagenic call (Test System: AMES SALMONELLA TYPHIMURIUM, Strain/Indicator: TA1535, Metabolic Activation: RAT, LIVER, S-9, AROCLOR 1254, Method: STANDARD PLATE) was “inactive; negative”. For the same molecule, the mutagenic call (Test System: AMES SALMONELLA TYPHIMURIUM, Strain/Indicator: TA1537, Metabolic Activation: HAMSTER, LIVER, S-9, AROCLOR 1254, Method: STANDARD PLATE) was “inactive; negative”, the mutagenic call [4] was “inactive; negative” and the mutagenic call (Test System: AMES SALMONELLA TYPHIMURIUM, Strain/Indicator: TA1537, Metabolic Activation: RAT, LIVER, S-9, AROCLOR 1254, Method: STANDARD PLATE) was “inactive; negative”. The mutagenic call (Test System: AMES SALMONELLA TYPHIMURIUM, Strain/Indicator: TA1538, Metabolic Activation: HAMSTER, LIVER, S-9, AROCLOR 1254, Method: STANDARD PLATE) was “inactive; negative”, the mutagenic call [5] was “inactive; negative” and the mutagenic call (Test System: AMES SALMONELLA TYPHIMURIUM, Strain/Indicator: TA1538, Metabolic Activation: RAT, LIVER, S-9, AROCLOR 1254, Method: STANDARD PLATE) was “inactive; negative”. For the same molecule, the mutagenic call (Test System: MOUSE LYMPHOMA, Strain/Indicator: L5178Y (TK+/TK-), Metabolic Activation: NONE, Method: SUSPENSION/PLATE) was “active; positive. reevaluation of results: inconclusive” and the mutagenic call (Test System: MOUSE LYMPHOMA, Strain/Indicator: L5178Y (TK+/TK-), Metabolic Activation: RAT, LIVER, S-9, AROCLOR 1254, Method: SUSPENSION/PLATE) was “active; positive. reevaluation of results: positive”.

In the case of Cc1cc(Cl)ccc1OCCCC(=O)O, the mutagenic call (Test System: AMES SALMONELLA TYPHIMURIUM, Strain/Indicator: TA97, Metabolic Activation: NONE, Method: STANDARD PLATE) is reported as “inactive; negative”, the mutagenic call (Test System: AMES SALMONELLA TYPHIMURIUM, Strain/Indicator: TA97, Metabolic Activation: RAT, LIVER, S-9, AROCLOR 1254, Method: STANDARD PLATE) is reported as “inactive; negative” and the mutagenic call [1] is reported as “inactive; negative”. The mutagenic call [6] was “inactive; negative”, the mutagenic call [2] was “inactive; negative” and the mutagenic call [7] was “inactive; negative”. For the same molecule, the mutagenic call (Test System: AMES SALMONELLA TYPHIMURIUM, Strain/Indicator: TA102, Metabolic Activation: NONE, Method: STANDARD PLATE) was “inactive; negative” and the mutagenic call (Test System: AMES SALMONELLA TYPHIMURIUM, Strain/Indicator: TA102, Metabolic Activation: RAT, LIVER, S-9, AROCLOR 1254, Method: STANDARD PLATE) was “inactive; negative”.

With c1ccc2nc3c4ccccc4c4ccccc4c3cc2c1 the mutagenic call (Test System: AMES SALMONELLA TYPHIMURIUM, Strain/Indicator: TA100, Metabolic Activation: RAT, LIVER, S-9, PHENOBARBITAL AND 5,6-BENZOFLAVONE, Method: STANDARD PLATE) was “active; positive”.
